The values that follow come from patent US8299048B2, “Hexahydrocyclopentyl[f]indazole sulfonamides and derivatives thereof as selective glucocorticoid receptor modulators” (Merck Sharp & Dohme Corp., priority 2008, dated 2012).

The target in experiment [1] is T1, human GR (Homo sapiens, UniProt P04150).
T1 sequence (P04150 1-777): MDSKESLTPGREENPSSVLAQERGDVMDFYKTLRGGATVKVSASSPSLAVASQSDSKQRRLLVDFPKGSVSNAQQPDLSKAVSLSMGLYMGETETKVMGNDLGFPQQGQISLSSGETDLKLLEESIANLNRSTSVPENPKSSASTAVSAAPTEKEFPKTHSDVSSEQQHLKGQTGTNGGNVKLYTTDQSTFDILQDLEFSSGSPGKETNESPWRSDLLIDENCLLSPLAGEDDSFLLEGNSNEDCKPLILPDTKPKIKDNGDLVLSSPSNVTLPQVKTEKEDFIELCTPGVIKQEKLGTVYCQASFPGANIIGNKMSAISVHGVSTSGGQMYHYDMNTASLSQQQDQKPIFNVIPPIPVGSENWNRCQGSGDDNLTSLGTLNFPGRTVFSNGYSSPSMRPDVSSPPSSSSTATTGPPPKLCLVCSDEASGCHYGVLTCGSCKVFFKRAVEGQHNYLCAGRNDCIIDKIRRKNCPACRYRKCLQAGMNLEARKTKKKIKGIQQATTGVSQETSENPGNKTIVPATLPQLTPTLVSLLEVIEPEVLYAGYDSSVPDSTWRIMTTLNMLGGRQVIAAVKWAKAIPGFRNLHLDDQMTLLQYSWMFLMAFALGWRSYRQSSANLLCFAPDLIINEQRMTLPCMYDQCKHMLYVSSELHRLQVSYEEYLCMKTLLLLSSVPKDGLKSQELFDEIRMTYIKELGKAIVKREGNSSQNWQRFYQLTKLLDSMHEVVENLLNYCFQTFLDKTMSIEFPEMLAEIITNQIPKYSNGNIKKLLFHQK
The experiment in a line: Trans-Activation Modulation of Glucocorticoid Receptor (GRAMMER), MMTV-LUC reporter, agonist mode. The conditions noted are these: maximum activity; for Emax: A549, A549 cells, read-out: Transactivation A549 Cells GRAMMER Emax. Type of experiment: cell-based. Details: endogenous in cells. The source says: This assay assesses the ability of test compounds to control transcription from the MMTV-LUC reporter gene in lung adenocarcinoma A549 cells or MDA-MB-453 cells, a human breast cancer cell line that naturally expresses the human GR. The assay measures induction of a modified MMTV LTR/promoter linked to the LUC reporter gene.
The routine transient assay consists of plating 7,000-25,000 cells/well of a white, clear-bottom 96-well plate. Alternatively, 384-well plates can be used at a cell concentration of 10,000/well. The media that the cells are plated in is “exponential growth medium” which consists of phenol red-free RPMI1640 containing 10% FBS, 4 mM L-glutamine, 20 mM HEPES, 10 ug/mL human insulin, and 20 ug/mL gentamicin. Incubator conditions are 37° C. and 5% CO2. The transfection is done in batch mode. The cells are trypsinized and counted to the right cell number in the proper amount of fresh media. It is then gently mixed with the FuGene6/DNA mix and plated onto the 96 or 384-well plate, all the wells receive 100 uL or 40 uL, respectively, of medium+lipid/DNA complex then incubated 37° C. overnight. The transfection cocktail consists of serum-free OptiMEM, FuGene6 reagent and DNA. The manufacturer's (Roche Biochemical) protocol for cocktail setup is as follows: The lipid to DNA ratio is approximately 2.5:1 and the incubation time is 20 min at room temperature. Sixteen to 24 hours after transfection, the cells are treated with dexamethasone to a final concentration of 10 nM as well as the compound of interest, such that final DMSO (vehicle) concentration is equal to or less than 1%. Each plate also contains samples that are treated with 10 nM dexamethasone alone, which is used as the 100% activity control. The cells are exposed to the compounds for 24 hours. After 24 hours, the cells are lysed by a Promega cell culture lysis buffer for approximately 30 min and then the luciferase activity in the extracts is assayed in the 96-well format luminometer. In 384-well format, Steady-Glo (Promega) or Steady-Lite (PerkinElmer) can be used by adding an equal volume of reagent to the media present in each well. Activity induced by 10 nM dexamethasone alone is set at 100% activity. Antagonist activity is calculated by determining the decrease in dexamethasone-induced activity in response to compound treatment relative to samples that were treated with dexamethasone alone. […] This transactivation assay can be performed in an agonist and antagonist mode to identify these different activities.

Experiment [2] has as its target T1, human GR. The experiment in a line: Transrepression Assay (GITAR), TNFα-β-lactamase reporter in U937 cells. To be noted: for GITAR > GRAMM % SEP: GITAR Emax minus GRAMMER Emax. Details: U937 cells contain an endogenous glucocorticoid receptor (GR); endogenous in cells; host or cells: U937 cells stably transfected with the TNF-alpha promoter/beta-lactamase reporter. The format is cell-based. The source says: This assay assesses the ability of test compounds to control transcription from the TNFα-β-lactamase reporter gene in U937 cells, a human myelomonocytic leukemia cell line that naturally expresses the human GR. The assay measures compound dependent-repression of the TNFa promoter linked to a reporter gene.
The human U937 cells that had been stablely transfected with the TNF-α promoter driving β-lactamase are used for this assay. U937 cells contain an endogenous glucocorticoid receptor (GR). Cells are maintained in RPMI 1640 Growth medium (Gibco Cat#11875-093) containing 25 mM HEPES, 10% FBS, 2 mM L-Glutamine, 1 mM Sodium pyruvate, 25 μg/ml Gentamicin (Gibco Cat#15710-064), 1:1000 2-Mercaptoethanol (Gibco Cat#21985-023) and 0.8 mg/ml G418 (Gibco Cat#10131-027). The density of the cells in the flask needs to be about 1×10^6−3×10^6/ml at the time of harvest. Usually, the cells are split to 1.2˜1.4×10^5/ml (1:10) 3 days prior to the assay. 50,000 cells/well are plated in 96 well black-walled plates the day of assay. Test compounds are added 10 μL/well, and cells are incubated at 37° C. for 30˜45 min. For assaying compounds, first dilute 1:10 in DMSO to make 1 mM, then further dilute 1:100 in medium to make 10× stock prior to adding to the cells. Add 50 ng/mlPMA (Sigma, cat# P8139) 10 μL/well to a final concentration 5 ng/ml, and 1 μg/ml LPS (Sigma, cat# L4130) 10 μL/well to a final concentration 100 ng/ml. Incubate cells at 37° C. overnight for ˜18 hr. PMA is stored frozen as 100 μg/ml stock in DMSO. Dilute 1:10 in DMSO for a working stock of 10 μg/ml and store at −20 C. For assaying, dilute the 10 μg/ml working stock 1:200 in medium to make a 10× solution (50 ng/ml). Store frozen LPS at 1 mg/ml in PBS, dilute 1:1000 in medium to make 10× (1 μg/ml) for the assay. Add 6× loading buffer (CCF2-AM) 20 μL/well, and incubate at room temperature for 70˜90 min. […] The activity repressed by 100 nM dexamethasone alone is set as 100% activity.

Setting [3] is: U-937, U937 cells, maximum activity, read-out: Transrepression U937 Cells GITAR Emax.
The mark [4] stands for this setting: U-937, activity repressed by 100 nM dexamethasone alone set as 100%, read-out: maximal activity in the transrepression (GITAR) assay.

Structures are written as SMILES. Where only a bound is given, the exact number is not on record here.

On to `C[C@]12Cc3cnn(-c4ccc(F)cc4)c3C=C1CC[C@@H]2CN(CC1CC1)S(=O)(=O)c1ccccc1Cl` [Example 12, 2-chloro-N-(cyclopropylmethyl)-N-{[(4αR,5S)-1-(4-fluorophenyl)-4α-methyl-1,4,4α,5,6,7-hexahydrocyclopenta[f]indazol-5-yl]methyl}benzenesulfonamide], for which the values for the Emax on human GR [1], on human GR [2] (setting [3]) and at human GR [2] (setting [4]) were 34.4%, 64.2% and above 5%, respectively. Moreover, the “GITAR > GRAMM % SEP” value at human GR [2] was 29.8%.

As to `C[C@]12Cc3cnn(-c4ccc(F)cc4)c3C=C1CC[C@@H]2CN(CC1CC1)S(=O)(=O)c1ccccc1Cl` [Example 22, 2-chloro-N-(cyclopropylmethyl)-N-{[(4αR,5S)-1-(4-fluorophenyl)-4α-methyl-1,4,4α,5,6,7-hexahydrocyclopenta[f]indazol-5-yl]methyl}benzenesulfonamide], at human GR [1] (A549 cells), the “Transactivation A549 Cells GRAMMER Emax” value stood at 27.9%. In addition, the “GITAR > GRAMM % SEP” value at human GR [2] was determined as 43.9%. In addition, the “Transrepression U937 Cells GITAR Emax” value on human GR [2] (U937 cells, maximum activity) is on record as 71.8%.

In the case of `C[C@]12Cc3cnn(-c4ccc(F)cc4)c3C=C1CC[C@@H]2CN(CCO)S(=O)(=O)c1ccc(-c2cnco2)s1` [Example 57, N-{[(4αR,5S)-1-(4-fluorophenyl)-4α-methyl-1,4,4α,5,6,7-hexahydrocyclopenta[f]indazol-5-yl]methyl}-N-(2-hydroxyethyl)-5-(1,3-oxazol-5-yl)thiophene-2-sulfonamide], the Emax at human GR [1] is 2.7%; at human GR [2] (setting [3]) it was 23.8%; on human GR [2] (setting [4]), above 5%. On human GR [2], the “GITAR > GRAMM % SEP” value is on record as 21.0%.

As to `C[C@]12Cc3cnn(-c4ccc(F)cc4)c3C=C1CC[C@@H]2CN(CCO)S(=O)(=O)c1ccc(C#N)cc1` [Example 62, 4-cyano-N-{[(4αR,5S)-1-(4-fluorophenyl)-4α-methyl-1,4,4α,5,6,7-hexahydrocyclopenta[f]indazol-5-yl]methyl}-N-(2-hydroxyethyl)benezenesulfonamide], the Emax is 26% on human GR [1], 68.5% at human GR [2] (setting [3]) and above 5% on human GR [2] (setting [4]). Besides, the “GITAR > GRAMM % SEP” value on human GR [2] turned out to be 42.5%.

On to `C[C@]12Cc3cnn(-c4ccc(F)cc4)c3C=C1CC[C@@H]2CN(CCc1ccccc1F)S(=O)(=O)C1CC1` [Example 101, N-[2-(2-fluorophenyl)ethyl]-N-{[(4αR,5S)-1-(4-fluorophenyl)-4α-methyl-1,4,4α,5,6,7-hexahydrocyclopenta[f]indazol-5-yl]methyl}cyclopropanesulfonamide], for which the figures for the Emax on human GR [1], on human GR [2] (setting [3]) and at human GR [2] (setting [4]) were 62.8%, 95.4% and above 5%, respectively. For the same molecule, the “GITAR > GRAMM % SEP” value on human GR [2] is 32.6%.
